IC50 data for 9 compounds are collected here from patent US9296734B2 (AMGEN INC., priority 2013, dated 2016).

Where two headings read alike, the source gives them in different places.

The target of assay [1] is Beta Secretase enzyme (BACE) (Homo sapiens (Human), UniProt P56817). The assay can be described thus: In vitro enzymatic BACE FRET assay. As to conditions: read-out: BACE 1 FRET assay IC50. Type of assay: biochemical. The gist of the method: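 Reactions ran in 0.05 M acetate pH 4.2 with 10% DMSO final and 100 uM genapol. They were started with 50 nM peptide FRET substrate (fluorophore and quencher flanking the BACE cleavage site) and incubated one hour. Tris addition raised the pH to neutral to stop the reaction before fluorescence reading.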

Assay [2] has as its target Cathepsin D (Cat D) (Homo sapiens (Human), UniProt P07339). The assay can be described thus: In vitro enzymatic Cathepsin D (Cat D) FRET assay. Type of assay: biochemical. As to conditions: read-out: CatD IC50. The gist of the method:
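CHO-expressed recombinant Cat D cleaves a fluorophore/quencher FRET peptide (20 nM) in 0.05 M citrate pH 3.5, 5 mM CHAPS, 10% DMSO final, over 1 h. Tris addition neutralizes pH to stop the reaction; fluorescence read at excitation 500 nm, emission 580 nm.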

Assay [3] deals with Aβ40 in conditioned medium of cells stably expressing Amyloid Precursor Protein (APP). Briefly: In vitro BACE cell-based assay (Aβ40 sandwich ELISA). As to conditions: Homo sapiens, read-out: HEK cell assay IC50. In a few lines:
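Secreted Aβ40 was quantified by sandwich ELISA (pAb40 capture, biotinylated 6E10 detection, Europium time-resolved fluorescence). IC50 derived from percent inhibition versus concentration.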

[4] abbreviates: HEK293, average IC50, HEK cells.
[5] abbreviates: average IC50, BACE enzyme assay.
Where [6] appears, read: average IC50, cathepsin D enzyme assay.
Setting [7] is: HEK293, average IC50, HEK cell assay.

Cathepsin D (Cat D), sequence (P07339 65-412, species assumed): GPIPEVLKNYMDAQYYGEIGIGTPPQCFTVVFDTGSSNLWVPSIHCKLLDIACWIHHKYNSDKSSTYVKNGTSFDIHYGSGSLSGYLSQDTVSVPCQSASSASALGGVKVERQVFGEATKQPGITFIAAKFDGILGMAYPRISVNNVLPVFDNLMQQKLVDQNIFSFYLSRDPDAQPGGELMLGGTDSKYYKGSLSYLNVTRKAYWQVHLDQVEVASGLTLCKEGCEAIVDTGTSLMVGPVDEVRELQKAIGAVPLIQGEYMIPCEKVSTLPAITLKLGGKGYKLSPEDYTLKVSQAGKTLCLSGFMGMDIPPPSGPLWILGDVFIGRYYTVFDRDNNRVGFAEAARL
Beta Secretase enzyme (BACE), sequence (P56817 46-501): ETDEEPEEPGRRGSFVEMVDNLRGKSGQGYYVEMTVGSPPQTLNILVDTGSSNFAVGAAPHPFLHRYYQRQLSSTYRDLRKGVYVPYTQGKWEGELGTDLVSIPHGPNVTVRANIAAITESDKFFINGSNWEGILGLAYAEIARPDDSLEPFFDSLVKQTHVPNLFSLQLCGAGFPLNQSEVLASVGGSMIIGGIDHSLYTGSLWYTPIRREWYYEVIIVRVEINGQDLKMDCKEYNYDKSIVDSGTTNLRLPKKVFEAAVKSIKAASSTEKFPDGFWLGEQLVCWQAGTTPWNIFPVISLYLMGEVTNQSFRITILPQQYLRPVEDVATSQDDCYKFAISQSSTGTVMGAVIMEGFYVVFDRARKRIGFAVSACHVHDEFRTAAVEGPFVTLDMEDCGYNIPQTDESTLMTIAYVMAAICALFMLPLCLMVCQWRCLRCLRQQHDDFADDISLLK

For `C[C@@]1(c2nc(NC(=O)c3ccc(Cl)cn3)ccc2F)C[C@@H](C(F)(F)F)OC(N)=N1` [Example 83, N-(6-((4S,6S)-2-amino-4-methyl-6-(trifluoromethyl)-5,6-dihydro-4H-1,3-oxazin-4-yl)-5-fluoropyridin-2-yl)-5-chloropicolinamide], the figures for the IC50 in assay [1] (average IC50), in assay [2] (average IC50) and in assay [3] (setting [4]) were 0.103 µM, over 400 µM and 0.0389 µM, respectively.
On the same counts, the results for `Cc1cc(OC(F)F)cnc1C(=O)Nc1ccc(F)c([C@]2(C)C[C@@H](C(F)(F)F)OC(N)=N2)n1` [Example 85, N-(6-((4S,6S)-2-amino-4-methyl-6-(trifluoromethyl)-5,6-dihydro-4H-1,3-oxazin-4-yl)-5-fluoropyridin-2-yl)-5-(difluoromethoxy)-3-methylpicolinamide] are 0.103 µM, 492 µM and 0.0295 µM.
On the same counts, the results for `C#CCOc1cnc(C(=O)Nc2ccc(F)c([C@]3(C)C[C@@H](C(F)(F)F)OC(N)=N3)n2)cn1` [Example 87, N-(6-((4S,6S)-2-amino-4-methyl-6-(trifluoromethyl)-5,6-dihydro-4H-1,3-oxazin-4-yl)-5-fluoropyridin-2-yl)-5-(prop-2-yn-1-yloxy)pyrazine-2-carboxamide] are 0.0254 µM, 609 µM and 0.0084 µM.
As to `C[C@@]1(c2nc(NC(=O)c3nn(C(F)F)cc3Cl)ccc2F)C[C@@H](C(F)(F)F)OC(N)=N1` [Example 88, N-(6-((4S,6S)-2-amino-4-methyl-6-(trifluoromethyl)-5,6-dihydro-4H-1,3-oxazin-4-yl)-5-fluoropyridin-2-yl)-4-chloro-1-(difluoromethyl)-1H-pyrazole-3-carboxamide], the values for the IC50 in assay [1] (setting [5]), in assay [2] (setting [6]) and in assay [3] (setting [7]) were 0.032 µM, 712 µM and 0.01 µM, respectively.
As for `Cc1cc(Cl)cnc1C(=S)Nc1ccc(F)c([C@]2(CF)C[C@@H](C(F)(F)F)OC(N)=N2)c1` [Example 90, N-(3-((4S,6S)-2-amino-4-(fluoromethyl)-6-(trifluoromethyl)-5,6-dihydro-4H-1,3-oxazin-4-yl)-4-fluorophenyl)-5-chloro-3-methylpyridine-2-carbothioamide], the IC50 in assay [1] (average IC50) was 1.76 µM; in assay [2] (average IC50) it was over 400 µM; in assay [3] (setting [4]), 0.909 µM.
On the same counts, the results for `NC1=N[C@](CF)(c2cc(Oc3cnccn3)ccc2F)C[C@@H](C(F)(F)F)O1` [Example 92, (4S,6S)-4-(2-fluoro-5-(pyrazin-2-yloxy)phenyl)-4-(fluoromethyl)-6-(trifluoromethyl)-5,6-dihydro-4H-1,3-oxazin-2-amine] are 1.64 µM, over 400 µM and 1.65 µM.
Consider `NC1=N[C@](CF)(c2cc(Oc3ncc(Cl)cc3F)ccc2F)C[C@@H](C(F)(F)F)O1` [Example 95, (4S,6S)-4-(5-((5-chloro-3-fluoropyridin-2-yl)oxy)-2-fluorophenyl)-4-(fluoromethyl)-6-(trifluoromethyl)-5,6-dihydro-4H-1,3-oxazin-2-amine], for which the IC50 in assay [1] (average IC50) is 2.89 µM; in assay [2] (average IC50), over 400 µM; in assay [3] (setting [4]) it was 2.59 µM.
On the same counts, the results for `NC1=N[C@](CF)(c2cc(Oc3cc(Br)cc(Cl)n3)ccc2F)C[C@@H](C(F)(F)F)O1` [Example 98] are 1.95 µM, over 400 µM and 2.9 µM.
For the compound `NC1=N[C@](CF)(c2cc(Oc3cccc(Cl)n3)ccc2F)C[C@@H](C(F)(F)F)O1` [Example 100, (4S,6S)-4-(5-((6-chloropyridin-2-yl)oxy)-2-fluorophenyl)-4-(fluoromethyl)-6-(trifluoromethyl)-5,6-dihydro-4H-1,3-oxazin-2-amine], the results for the IC50 in assay [1] (setting [5]), in assay [2] (setting [6]) and in assay [3] (setting [7]) were 1.57 µM, 1930 µM and 3.26 µM, respectively.

As usually defined, the IC50 is the point on the concentration scale where inhibition reaches its midpoint.
